# According to ChEMBL document CHEMBL1629634, “Postantibiotic effect of tigecycline against 14 gram-positive organisms” (Antimicrob Agents Chemother, 2009):
# What was measured:
# [1] = system: Klebsiella pneumoniae; assay: Antibacterial activity against Klebsiella pneumoniae assessed as post-antibiotic sub-MIC effect at 0.4 times MIC concentration pretreated with 10 times MIC concentration for 1 hr followed by 1:1000 dilution by viable plate count method; type: functional
# [2] = system: Escherichia coli; assay: Antibacterial activity against Escherichia coli assessed as post antibiotic effect at 6 times MIC concentration incubated for 1 hr measured after 1:1000 dilution by viable plate count method; type: functional
# [3] = system: Staphylococcus aureus; assay: Antibacterial activity against vancomycin-sensitive methicillin-resistant Staphylococcus aureus assessed as post-antibiotic sub-MIC effect at 0.2 times MIC concentration pretreated with 6 times MIC concentration for 1 hr followed by 1:1000 dilution by viable plate count method; type: functional
# [4] = Half life in patient serum at 100 mg, iv followed by 50 mg every 12 hrs after 60 mins post dose; type: ADME, organism-based; conditions: human
# [5] = system: Klebsiella pneumoniae; assay: Antibacterial activity against Klebsiella pneumoniae assessed as post-antibiotic sub-MIC effect at 0.3 times MIC concentration pretreated with 10 times MIC concentration for 1 hr followed by 1:1000 dilution by viable plate count method; type: functional
# [6] = system: Escherichia coli; assay: Antibacterial activity against Escherichia coli assessed as post-antibiotic sub-MIC effect at 0.4 times MIC concentration pretreated with 6 times MIC concentration for 1 hr followed by 1:1000 dilution by viable plate count method; type: functional
# [7] = system: Enterobacter cloacae; assay: Antibacterial activity against Enterobacter cloacae assessed as sub-MIC effect at 0.2 times MIC concentration incubated for 1 hr by viable plate count method; type: functional
# [8] = system: Enterococcus faecalis; assay: Antibacterial activity against vancomycin-resistant Enterococcus faecalis assessed as post-antibiotic sub-MIC effect at 0.4 times MIC concentration pretreated with 10 times MIC concentration for 1 hr followed by 1:1000 dilution by viable plate count method; type: functional
# [9] = system: Enterobacter cloacae; assay: Antibacterial activity against Enterobacter cloacae by macrodilution method; type: functional
# [10] = system: Acinetobacter baumannii; assay: Antibacterial activity against Acinetobacter baumannii by macrodilution method; type: functional
# [11] = system: Staphylococcus aureus; assay: Antibacterial activity against vancomycin-intermediate methicillin-resistant Staphylococcus aureus assessed as post-antibiotic sub-MIC effect at 0.2 times MIC concentration pretreated with 6 times MIC concentration for 1 hr followed by 1:1000 dilution by viable plate count method; type: functional
# [12] = system: Escherichia coli; assay: Antibacterial activity against Escherichia coli assessed as post antibiotic effect at 10 times MIC concentration incubated for 1 hr measured after 1:1000 dilution by viable plate count method; type: functional
# [13] = system: Streptococcus pneumoniae; assay: Antibacterial activity against penicillin-intermediate Streptococcus pneumoniae assessed as post-antibiotic sub-MIC effect at 0.4 times MIC concentration pretreated with 10 times MIC concentration for 1 hr followed by 1:1000 dilution by viable plate count method; type: functional
# [14] = system: Streptococcus pneumoniae; assay: Antibacterial activity against penicillin-intermediate Streptococcus pneumoniae by macrodilution method; type: functional
# [15] = system: Haemophilus influenzae; assay: Antibacterial activity against beta-lactamase deficient ampicillin-resistant Haemophilus influenzae assessed as post-antibiotic sub-MIC effect at 0.2 times MIC concentration pretreated with 10 times MIC concentration for 1 hr followed by 1:1000 dilution by viable plate count method; type: functional
# [16] = system: Enterococcus faecalis; assay: Antibacterial activity against vancomycin-resistant Enterococcus faecalis assessed as sub-MIC effect at 0.4 times MIC concentration incubated for 1 hr by viable plate count method; type: functional
# [17] = system: Acinetobacter baumannii; assay: Antibacterial activity against multidrug-resistant Acinetobacter baumannii producing OXA-24 and OXA-51 beta-lactamases assessed as post-antibiotic sub-MIC effect at 0.4 times MIC concentration pretreated with 10 times MIC concentration for 1 hr followed by 1:1000 dilution by viable plate count method; type: functional
# [18] = system: Haemophilus influenzae; assay: Antibacterial activity against beta-lactamase deficient and ampicillin-resistant Haemophilus influenzae assessed as sub-MIC effect at 0.2 times MIC concentration incubated for 1 hr by viable plate count method; type: functional
# [19] = system: Escherichia coli; assay: Antibacterial activity against Escherichia coli assessed as sub-MIC effect at 0.4 times MIC concentration incubated for 1 hr by viable plate count method; type: functional
# [20] = system: Streptococcus pneumoniae; assay: Antibacterial activity against penicillin-susceptible Streptococcus pneumoniae assessed as post-antibiotic sub-MIC effect at 0.4 times MIC concentration pretreated with 10 times MIC concentration for 1 hr followed by 1:1000 dilution by viable plate count method; type: functional
# [21] = system: Enterococcus faecalis; assay: Antibacterial activity against vancomycin-sensitive Enterococcus faecalis assessed as sub-MIC effect at 0.4 times MIC concentration incubated for 1 hr by viable plate count method; type: functional
# [22] = system: Staphylococcus aureus; assay: Antibacterial activity against vancomycin-sensitive methicillin-resistant Staphylococcus aureus assessed as post antibiotic effect at 10 times MIC concentration incubated for 1 hr measured after 1:1000 dilution by viable plate count method; type: functional
# [23] = system: Acinetobacter baumannii; assay: Antibacterial activity against multidrug-resistant Acinetobacter baumannii producing OXA-24 and OXA-51 beta-lactamases assessed as post-antibiotic sub-MIC effect at 0.3 times MIC concentration pretreated with 10 times MIC concentration for 1 hr followed by 1:1000 dilution by viable plate count method; type: functional
# [24] = system: Escherichia coli; assay: Antibacterial activity against Escherichia coli assessed as sub-MIC effect at 0.3 times MIC concentration incubated for 1 hr by viable plate count method; type: functional
# [25] = system: Enterococcus faecalis; assay: Antibacterial activity against vancomycin-resistant Enterococcus faecalis assessed as post-antibiotic sub-MIC effect at 0.3 times MIC concentration pretreated with 10 times MIC concentration for 1 hr followed by 1:1000 dilution by viable plate count method; type: functional
# [26] = system: Escherichia coli; assay: Antibacterial activity against Escherichia coli assessed as post antibiotic effect; type: functional
# [27] = system: Haemophilus influenzae; assay: Antibacterial activity against amoxicillin, clavulanate-resistant Haemophilus influenzae expressing beta-lactamase assessed as post-antibiotic sub-MIC effect at 0.4 times MIC concentration pretreated with 10 times MIC concentration for 1 hr followed by 1:1000 dilution by viable plate count method; type: functional
# [28] = system: Haemophilus influenzae; assay: Antibacterial activity against beta-lactamase deficient and ampicillin-resistant Haemophilus influenzae assessed as post antibiotic effect at 10 times MIC concentration incubated for 1 hr measured after 1:1000 dilution by viable plate count method; type: functional
# [29] = system: Haemophilus influenzae; assay: Antibacterial activity against amoxicillin, clavulanate-resistant Haemophilus influenzae expressing beta-lactamase assessed as sub-MIC effect at 0.2 times MIC concentration incubated for 1 hr by viable plate count method; type: functional
# [30] = system: Haemophilus influenzae; assay: Antibacterial activity against beta-lactamase deficient and ampicillin-resistant Haemophilus influenzae by macrodilution method; type: functional
# [31] = system: Escherichia coli; assay: Antibacterial activity against Escherichia coli assessed as post-antibiotic sub-MIC effect at 0.2 times MIC concentration pretreated with 6 times MIC concentration for 1 hr followed by 1:1000 dilution by viable plate count method; type: functional
# [32] = system: Streptococcus pneumoniae; assay: Antibacterial activity against penicillin-susceptible Streptococcus pneumoniae by macrodilution method; type: functional
# [33] = system: Haemophilus influenzae; assay: Antibacterial activity against amoxicillin, clavulanate-resistant Haemophilus influenzae expressing beta-lactamase assessed as post antibiotic effect at 10 times MIC concentration incubated for 1 hr measured after 1:1000 dilution by viable plate count method; type: functional
# [34] = system: Escherichia coli; assay: Antibacterial activity against Escherichia coli assessed as post-antibiotic sub-MIC effect at 0.2 times MIC concentration pretreated with 10 times MIC concentration for 1 hr followed by 1:1000 dilution by viable plate count method; type: functional
# [35] = system: Enterococcus faecalis; assay: Antibacterial activity against vancomycin-sensitive Enterococcus faecalis assessed as post-antibiotic sub-MIC effect at 0.4 times MIC concentration pretreated with 10 times MIC concentration for 1 hr followed by 1:1000 dilution by viable plate count method; type: functional
smiles,measurement,setting,value
CN(C)c1cc(NC(=O)CNC(C)(C)C)c(O)c2c1C[C@H]1C[C@H]3[C@H](N(C)C)C(O)=C(C(N)=O)C(=O)[C@@]3(O)C(O)=C1C2=O [TIGECYCLINE],PAE,[1],2.3 h
same,PAE,[2],1.9 h
same,PAE,[3],3.7 h
same,half-life,[4],40 h
same,PAE,[5],2 h
same,PAE,[6],3.3 h
same,PAE,[7],0.2 h
same,PAE,[8],11 h
same,MIC,[9],0.5 µg/mL
same,MIC,[10],0.12 µg/mL
same,PAE,[11],5.6 h
same,PAE,[12],2 h
same,PAE,[13],8.8 h
same,MIC,[14],0.06 µg/mL
same,PAE,[15],2.8 h
same,PAE,[16],0.4 h
same,PAE,[17],3.8 h
same,PAE,[18],0.8 h
same,PAE,[19],0.1 h
same,PAE,[20],9 h
same,PAE,[21],1.8 h
same,PAE,[22],3.2 h
same,PAE,[23],2.2 h
same,PAE,[24],0 h
same,PAE,[25],10.5 h
same,PAE,[26],2 h
same,PAE,[27],7.9 h
same,PAE,[28],1.1 h
same,PAE,[29],0 h
same,MIC,[30],0.06 µg/mL
same,PAE,[31],1.9 h
same,MIC,[32],0.03 µg/mL
same,PAE,[33],3.7 h
same,PAE,[34],2.4 h
same,PAE,[35],8.2 h
